According to patent US20040044006A1, “Methods of use of quinolone compounds against pneumococcal and haemophilus bacteria” (priority 1999, published 2004):
≈ marks a conversion by molar mass, not a printed value. Where “and” joins values, the source holds several entries; their conditions need not be identical. Equal values may be shown once. Read-outs that look alike come from different tables or passages of the source.

How the values were obtained:
[1] = tested on: penicillin susceptible and resistant pneumococcal strains (2 quinolone resistant); assay: Time-kill testing of 12 pneumococcal strains; format: cell-based, Streptococcus pneumoniae; settings: for concentration at which bactericidal after 24 h: 12 penicillin susceptible and resistant pneumococcal strains, bactericidal = ≧3 log10 cfu/ml (99.9%) reduction
Protocol: For time-kill studies, glass tubes containing 5 ml cation-adjusted Mueller-Hinton broth (Difco)+5% lysed horse blood with doubling antibiotic concentrations were inoculated with 5×10^5 to 5×10^6 cfu/ml and incubated at 35° C. in a shaking water bath. […] Growth controls with inoculum but no antibiotic were included with each experiment (Pankuch, et al., Antimicrob. Agents Chemother. 38:2065-2072, 1994; Pankuch, et al., Antimicrob. Agents Chemother. 40:1653-1656, 1996).
Lysed horse blood was prepared as described previously. The bacterial inoculum was prepared by diluting a 16 h broth (medium as above) culture in the same medium. Dilutions required to obtain the correct inoculum (5×10^5-5×10^6 cfu/ml) were determined by prior viability studies using each strain (Pankuch, et al., Antimicrob. Agents Chemother. 38:2065-2072, 1994; Pankuch, et al., Antimicrob. Agents Chemother. 40: 1653-1656, 1996).
To inoculate each tube of serially diluted antibiotic, 50 μl of diluted inoculum was delivered by pipette beneath the surface of the broth. Tubes were then vortexed and plated for viability counts within 10 min (approximately 0.2 h). The original inoculum was determined by using the untreated growth control. Only tubes containing an initial inoculum within the range of 5×10^5 to 5×10^6 cfu/ml were acceptable (Pankuch, et al., Antimicrob. Agents Chemother. 38:2065-2072, 1994; Pankuch, et al., Antimicrob. Agents Chemother. 40:1653-1656, 1996).
Viability counts of antibiotic-containing suspensions were performed by plating ten-fold dilutions of 0.1 ml aliquots from each tube in sterile Mueller-t-Hinton broth onto trypticase soy agar 5% sheep blood agar plates (BBL). Recovery plates were incubated for up to 72 h. Colony Counts were performed on plates yielding 30-300 colonies. The lower limit of sensitivity of colony counts was 300 cfu/ml (Pankuch, et al., Antimicrob. Agents Chemother. 38:2065-2072, 1994; Pankuch, et al., Antimicrob. Agents Chemother. 40:1653-1656, 1996).
Time-kill assays were analysed by determining the number of strains which yielded a log10 cfu/ml of −1, −2 and −3 at 0, 3, 6, 12 and 24 h, compared to counts at time 0 h. Antimicrobials were considered bactericidal at the lowest concentration that reduced the original inoculum by ≧3 log10 cfu/ml (99.9%) at each of the time periods, and bacteriostatic if the inoculum was reduced by 0-3 log10 cfu/ml. […] The problem of bacterial carryover was addressed as described previously. For macrolide time-kill testing, only strains with MICs≦4.0 μg/ml were tested (Pankuch, et al., Antimicrob. Agents Chemother. 38:2065-9072, 1994; Pankuch, et al., Antimicrob. Agents Chemother. 40:1653-1656, 1996).

[2] = tested on: quinolone susceptible pneumococci (ciprofloxacin MICs ≦4.0 μg/ml); assay: Agar dilution MICs of 207 quinolone susceptible pneumococcal strains; format: cell-based, Streptococcus pneumoniae; settings: Streptococcus pneumoniae; for MIC90: read-out: MIC90
Procedure, shortened: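 Agar dilution MICs by prior methods on Mueller-Hinton agar with 5% sheep blood; S. pneumoniae ATCC 49619 among QC strains each run. Isolates were recent U.S. strains plus some from South Africa, Europe and Korea.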

[3] = tested on: methicillin-susceptible and -resistant Staphylococcus aureus, methicillin-resistant Staphylococcus epidermidis and S. pneumoniae; settings: previous studies; cited from earlier work
[4] = tested on: quinolone resistant pneumococci; assay: Determination of efflux mechanism: MICs in the presence and absence of reserpine; format: cell-based, Streptococcus pneumoniae; settings: for lower MICs in the presence of reserpine, fold range over affected strains: 28 quinolone resistant strains; for lower MICs in the presence of reserpine, fold range over affected strains / number of strains with lower MICs in the presence of reserpine / lower MIC in the presence of reserpine (efflux mechanism): 10 μg/ml reserpine; for number of strains with lower MICs in the presence of reserpine: of 28 quinolone resistant strains
Protocol: MICs were determined in the presence and absence of 10 μg/ml of reserpine (Sigma Chemicals, St. Louis, Mo.) as known in the art.
MICs were determined in the presence and absence of […] of reserpine (Sigma Chemicals, St. Louis, Mo., USA) as described previously (Brenwald, et al., Antimicrob. Agents Chemother. 42:2039-2035, 1998 and Davies, et al., Antimicrob. Agents Chemother. 43:1177-1182S, 1999).

[5] = agar dilution, Penicillin I strains
[6] = agar dilution, Penicillin I strains, read-out: MIC range
[7] = agar dilution, Penicillin R strains
[8] = agar dilution, Penicillin S strains
[9] = agar dilution, all 207 strains (64 penicillin susceptible, 68 intermediate, 75 resistant)
[10] = agar dilution, Penicillin R strains, read-out: MIC range
[11] = agar dilution, Penicillin S strains, read-out: MIC range

CO/N=C1\CN(c2nc3c(cc2F)c(=O)c(C(=O)O)cn3C2CC2)CC1CN (racemic) [Gemifloxacin, (R,S)-7-(3-aminomethyl-4-methoxyiminopyrrolidin-1-yl)-1-cyclopropyl-6-fluoro-4-oxo-1,4-dihydro-1,8-naphthyridine-3-carboxylic acid]
concentration at which bactericidal after 24 h ([1]; 24 h): 2 ×MIC | concentration at which uniformly bactericidal after 24 h ([1]; all 12 strains, 24 h): ≤ 0.5 µg/mL | bactericidal activity for the two quinolone resistant pneumococcal strains [1]: bactericidal at the microbroth MIC | MIC50 [2, 5]: 0.03 µg/mL (≈ 0.077 µM) | MIC90 [2, 5]: 0.06 µg/mL (≈ 0.154 µM) | MIC [2, 6]: 0.008 to 0.25 µg/mL (≈ 0.0205 to 0.642 µM) | MIC50 [2, 7]: 0.03 µg/mL (≈ 0.077 µM) | MIC90 [2, 7]: 0.06 µg/mL (≈ 0.154 µM) | MIC50 [2, 8]: 0.03 µg/mL (≈ 0.077 µM) | MIC90 [2, 8]: 0.03 µg/mL (≈ 0.077 µM) | MIC50 [2, 9]: 0.03 µg/mL (≈ 0.077 µM) | MIC90 [2, 9]: 0.06 µg/mL (≈ 0.154 µM) | MIC ([2]; read-out: MIC range, agar dilution, Penicillin R strains): 0.004 to 0.125 µg/mL (≈ 0.0103 to 0.321 µM) | MIC ([2]; read-out: MIC range, agar dilution, Penicillin S strains): 0.008 to 0.125 µg/mL (≈ 0.0205 to 0.321 µM) | fold more active than ciprofloxacin, ofloxacin, sparfloxacin and trovafloxacin [3]: 32 to 64 fold and 32-64 fold | lower MICs in the presence of reserpine, fold range over affected strains [4]: 2-4 × | number of strains with lower MICs in the presence of reserpine [4]: 13 strains | Number of dilutions decrease after incubation with reserpine ([4]; strain 1): 2X^a | lower MIC in the presence of reserpine (efflux mechanism) ([4]; strain 1): 2X^a | Number of dilutions decrease after incubation with reserpine ([4]; strain 5): 2X | lower MIC in the presence of reserpine (efflux mechanism) ([4]; strain 5): 2X | Number of dilutions decrease after incubation with reserpine ([4]; strain 7): 2X | lower MIC in the presence of reserpine (efflux mechanism) ([4]; strain 7): 2X | Number of dilutions decrease after incubation with reserpine ([4]; strain 8): 2X | lower MIC in the presence of reserpine (efflux mechanism) ([4]; strain 8): 2X | Number of dilutions decrease after incubation with reserpine ([4]; strain 9): 4X | lower MIC in the presence of reserpine (efflux mechanism) ([4]; strain 9): 4X | Number of dilutions decrease after incubation with reserpine ([4]; strain 11): 2X | lower MIC in the presence of reserpine (efflux mechanism) ([4]; strain 11): 2X | Number of dilutions decrease after incubation with reserpine ([4]; strain 12): 2X | lower MIC in the presence of reserpine (efflux mechanism) ([4]; strain 12): 2X | Number of dilutions decrease after incubation with reserpine ([4]; strain 16): 2X | lower MIC in the presence of reserpine (efflux mechanism) ([4]; strain 16): 2X | Number of dilutions decrease after incubation with reserpine ([4]; strain 17): 2X | lower MIC in the presence of reserpine (efflux mechanism) ([4]; strain 17): 2X | Number of dilutions decrease after incubation with reserpine ([4]; strain 23): 2X | lower MIC in the presence of reserpine (efflux mechanism) ([4]; strain 23): 2X | Number of dilutions decrease after incubation with reserpine ([4]; strain 25): 2x X | lower MIC in the presence of reserpine (efflux mechanism) ([4]; strain 25): 2x X | Number of dilutions decrease after incubation with reserpine ([4]; strain 26): 2x X | lower MIC in the presence of reserpine (efflux mechanism) ([4]; strain 26): 2x X | Number of dilutions decrease after incubation with reserpine ([4]; strain 28): 4x X | lower MIC in the presence of reserpine (efflux mechanism) ([4]; strain 28): 4x X

Cc1c(F)c(N2CCNC(C)C2)cc2c1c(=O)c(C(=O)O)cn2C1CC1 (stereo not shown) [Grepafloxacin, grepafloxacin]
concentration at which bactericidal after 24 h ([1]; 24 h): 4 ×MIC | MIC50 [2, 5]: 0.125 µg/mL (≈ 0.348 µM) | MIC90 [2, 5]: 0.5 µg/mL (≈ 1.39 µM) | MIC [2, 6]: 0.03 to 0.5 µg/mL (≈ 0.0835 to 1.39 µM) | MIC50 [2, 7]: 0.25 µg/mL (≈ 0.696 µM) | MIC90 [2, 7]: 0.5 µg/mL (≈ 1.39 µM) | MIC [2, 10]: 0.03 to 0.5 µg/mL (≈ 0.0835 to 1.39 µM) | MIC50 [2, 8]: 0.125 µg/mL (≈ 0.348 µM) | MIC90 [2, 8]: 0.5 µg/mL (≈ 1.39 µM) | MIC [2, 11]: 0.03 to 1 µg/mL (≈ 0.0835 to 2.78 µM) | MIC50 [2, 9]: 0.125 µg/mL (≈ 0.348 µM) | MIC90 [2, 9]: 0.5 µg/mL (≈ 1.39 µM) | lower MICs in the presence of reserpine, fold range over affected strains [4]: 2 × | number of strains with lower MICs in the presence of reserpine [4]: 3 strains | Number of dilutions decrease after incubation with reserpine ([4]; strain 5): 2X | lower MIC in the presence of reserpine (efflux mechanism) ([4]; strain 5): 2X | Number of dilutions decrease after incubation with reserpine ([4]; strain 12): 2X | lower MIC in the presence of reserpine (efflux mechanism) ([4]; strain 12): 2X | Number of dilutions decrease after incubation with reserpine ([4]; strain 28): 2X | lower MIC in the presence of reserpine (efflux mechanism) ([4]; strain 28): 2X

C[C@@H]1CN(c2c(F)c(N)c3c(=O)c(C(=O)O)cn(C4CC4)c3c2F)C[C@H](C)N1 [Sparfloxacin, sparfloxacin]
concentration at which bactericidal after 24 h ([1]; 24 h): 2 ×MIC | MIC50 [2, 5]: 0.5 µg/mL (≈ 1.27 µM) | MIC90 [2, 5]: 0.5 µg/mL (≈ 1.27 µM) | MIC [2, 6]: 0.06 to 2 µg/mL (≈ 0.153 to 5.1 µM) | MIC50 [2, 7]: 0.5 µg/mL (≈ 1.27 µM) | MIC90 [2, 7]: 0.5 µg/mL (≈ 1.27 µM) | MIC [2, 10]: 0.06 to 1 µg/mL (≈ 0.153 to 2.55 µM) | MIC50 [2, 8]: 0.5 µg/mL (≈ 1.27 µM) | MIC90 [2, 8]: 1 µg/mL (≈ 2.55 µM) | MIC [2, 11]: 0.03 to 1 µg/mL (≈ 0.0765 to 2.55 µM) | MIC50 [2, 9]: 0.5 µg/mL (≈ 1.27 µM) | MIC90 [2, 9]: 0.5 µg/mL (≈ 1.27 µM) | lower MICs in the presence of reserpine, fold range over affected strains [4]: 2 × | number of strains with lower MICs in the presence of reserpine [4]: one | Number of dilutions decrease after incubation with reserpine ([4]; strain 5): 2X | lower MIC in the presence of reserpine (efflux mechanism) ([4]; strain 5): 2X

N[C@@H]1[C@H]2CN(c3nc4c(cc3F)c(=O)c(C(=O)O)cn4-c3ccc(F)cc3F)C[C@@H]12 [Trovafloxacin, trovafloxacin]
concentration at which bactericidal after 24 h ([1]; 24 h): 4 ×MIC | bactericidal activity for the two quinolone resistant pneumococcal strains [1]: bactericidal at the microbroth MIC | MIC50 [2, 5]: 0.125 µg/mL (≈ 0.3 µM) | MIC90 [2, 5]: 0.25 µg/mL (≈ 0.6 µM) | MIC [2, 6]: 0.016 to 1 µg/mL (≈ 0.0384 to 2.4 µM) | MIC50 [2, 7]: 0.125 µg/mL (≈ 0.3 µM) | MIC90 [2, 7]: 0.25 µg/mL (≈ 0.6 µM) | MIC [2, 10]: 0.03 to 0.25 µg/mL (≈ 0.0721 to 0.6 µM) | MIC50 [2, 8]: 0.125 µg/mL (≈ 0.3 µM) | MIC90 [2, 8]: 0.25 µg/mL (≈ 0.6 µM) | MIC [2, 11]: 0.03 to 0.5 µg/mL (≈ 0.0721 to 1.2 µM) | MIC90 [2, 9]: 0.25 µg/mL (≈ 0.6 µM)
